Reference: ChEMBL document CHEMBL4819067, “Discovery of novel pyrimidine molecules containing boronic acid as VCP/p97 Inhibitors” (Bioorg Med Chem, 2021)

Assays:
[1] = target: Transitional endoplasmic reticulum ATPase (Homo sapiens, UniProt P55072); test: Inhibition of p97 (unknown origin) incubated for 60 mins by ADP-Glo assay
[2] = test system: RPMI-8226; test: Cytotoxicity against human RPMI-8226 cells assessed as reduction in cell viability incubated for 72 hrs by CCK8 assay; format: functional, cell-based
[3] = test system: A549; test: Cytotoxicity against human A549 cells assessed as reduction in cell viability incubated for 72 hrs by CCK8 assay; format: functional, cell-based; settings: A549, 72 h
[4] = Homo sapiens, RPMI-8226, 72 h, read-out: IC50

Sequence of Transitional endoplasmic reticulum ATPase (P55072 whole entry): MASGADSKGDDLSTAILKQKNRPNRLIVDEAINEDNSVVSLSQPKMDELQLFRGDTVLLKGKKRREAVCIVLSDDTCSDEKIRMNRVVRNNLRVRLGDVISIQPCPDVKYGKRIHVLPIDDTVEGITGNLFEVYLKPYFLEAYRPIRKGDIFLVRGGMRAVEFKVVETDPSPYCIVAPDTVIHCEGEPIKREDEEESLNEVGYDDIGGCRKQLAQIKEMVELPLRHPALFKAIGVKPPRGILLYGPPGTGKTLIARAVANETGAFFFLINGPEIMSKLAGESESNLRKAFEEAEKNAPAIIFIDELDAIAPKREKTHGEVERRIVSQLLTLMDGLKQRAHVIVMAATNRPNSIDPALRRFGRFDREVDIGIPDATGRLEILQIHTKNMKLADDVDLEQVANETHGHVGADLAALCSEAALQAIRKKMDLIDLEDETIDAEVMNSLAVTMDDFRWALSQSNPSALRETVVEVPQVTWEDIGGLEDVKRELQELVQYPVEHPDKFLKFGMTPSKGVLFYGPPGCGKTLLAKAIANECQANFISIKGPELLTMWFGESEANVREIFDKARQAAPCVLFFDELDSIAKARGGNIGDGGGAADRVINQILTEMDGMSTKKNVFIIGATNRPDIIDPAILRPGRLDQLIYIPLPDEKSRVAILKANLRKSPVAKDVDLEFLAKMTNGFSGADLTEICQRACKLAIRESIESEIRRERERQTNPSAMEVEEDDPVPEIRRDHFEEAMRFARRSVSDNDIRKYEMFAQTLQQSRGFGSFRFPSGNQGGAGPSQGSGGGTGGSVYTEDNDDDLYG

| Compound | IC50 [1] | IC50 [2, 4] | IC50 [3] | IC50 ([2]; rpmi-8226) |
| --- | --- | --- | --- | --- |
| CC#CC(=O)Nc1cccc2c1cc(C)n2-c1ncc(OC)c(NCc2cccc(B(O)O)c2)n1 | 32 nM | 2400 nM | 6.1 µM | – |
| COc1cnc(-n2c(C)cc3c(NC(=O)c4ccco4)cccc32)nc1NCc1cccc(B(O)O)c1 | 97.4 nM | 1900 nM | 3.77 µM | – |
| Cc1cc2c(NC(=O)c3ccco3)cccc2n1-c1nc(NCc2cccc(B(O)O)c2)c2ccccc2n1 | 162 nM | 3200 nM | 5.8 µM | – |
| C#CC(=O)Nc1cccc2c1cc(C)n2-c1nc2c(c(NCc3cccc(B(O)O)c3)n1)CCC2 | 91.4 nM | 1270 nM | 2.1 µM | – |
| Cc1cc2c(NC(=O)CCl)cccc2n1-c1nc2c(c(NCc3cccc(B(O)O)c3)n1)CCC2 | 258 nM | – | – | – |
| CC#CC(=O)Nc1cccc2c1cc(C)n2-c1nc2c(c(NCc3cccc(B(O)O)c3)n1)CCC2 | 58.6 nM | 1730 nM | 3.15 µM | – |
| Cc1cc2c(NC(=O)CCCl)cccc2n1-c1nc2c(c(NCc3cccc(B(O)O)c3)n1)CCC2 | 436 nM | – | – | – |
| Cc1cc2c(NS(C)(=O)=O)cccc2n1-c1nc2c(c(NCc3cccc(B(O)O)c3)n1)COCC2 | 117 nM | 5100 nM | > 10 µM | – |
| Cc1cc2c(NC(=O)c3ccco3)cccc2n1-c1nc2c(c(NCc3cccc(B(O)O)c3)n1)CCC2 | 57.3 nM | 2300 nM | 3.55 µM | – |
| C=CC(=O)Nc1cccc2c1cc(C)n2-c1nc2c(c(NCc3cccc(B(O)O)c3)n1)CCC2 | 192 nM | 2940 nM | 4.75 µM | – |
| Cc1cc2c(NC(=O)c3ccco3)cccc2n1-c1nc2c(c(NCc3cccc(B(O)O)c3)n1)CCCC2 | 93.4 nM | 2330 nM | 3.12 µM | – |
| Cc1cc2c(NC(=O)CC#N)cccc2n1-c1nc2c(c(NCc3cccc(B(O)O)c3)n1)CCC2 | 692 nM | – | – | – |
| Cc1cc2c(NS(C)(=O)=O)cccc2n1-c1nc2c(c(NCc3cccc(B(O)O)c3)n1)CCCC2 | 45.6 nM | 1550 nM | 2.42 µM | – |
| CC#CC(=O)Nc1cccc2c1cc(C)n2-c1nc(NCc2cccc(B(O)O)c2)c2ccccc2n1 | 114 nM | 2200 nM | 5.6 µM | – |
| Cc1cc2c(NC(=O)c3cscn3)cccc2n1-c1nc2c(c(NCc3cccc(B(O)O)c3)n1)CCC2 | 468 nM | – | – | – |
| Cc1cc2c(NC(=O)c3ccco3)cccc2n1-c1nc2c(c(NCc3cccc(B(O)O)c3)n1)COCC2 | 91 nM | 2700 nM | 4.38 µM | – |
| Cc1cc2c(NS(C)(=O)=O)cccc2n1-c1nc2c(c(NCc3cccc(B(O)O)c3)n1)CCC2 | 54.7 nM | 860 nM | 2.8 µM | – |
| CC#CC(=O)Nc1cccc2c1cc(C)n2-c1nc2c(c(NCc3cccc(B(O)O)c3)n1)CCCC2 | 89.8 nM | 1500 nM | 2.15 µM | – |
| Cc1cc2c(NS(C)(=O)=O)cccc2n1-c1nc(NCc2cccc(B(O)O)c2)c2ccccc2n1 | 88.9 nM | 3600 nM | 5.6 µM | – |
| CC#CC(=O)Nc1cccc2c1cc(C)n2-c1nc2c(c(NCc3cccc(B(O)O)c3)n1)COCC2 | 117 nM | 2900 nM | 4.1 µM | – |
| Cc1cc2c(NC(=O)c3ccno3)cccc2n1-c1nc2c(c(NCc3cccc(B(O)O)c3)n1)CCC2 | 241 nM | – | – | – |
| C/C=C/C(=O)Nc1cccc2c1cc(C)n2-c1nc2c(c(NCc3cccc(B(O)O)c3)n1)CCC2 | 166 nM | – | 4.45 µM | Not Active |
